Results reported in patent publication US9981043B2, “Analgesic conjugates” (priority 2013, dated 2018).

How the values were obtained:
[1] = test system: live mice; experiment: Respiratory depression (Mouse Ox O2 saturation); type: in vivo; details: i.t.; dose 100 times the ED90
Protocol: Respiratory depression was measured in live mice using the Mouse Ox (small animal Oximeter from STARR Life Sciences Corp, Oakmont, Pa.). CollarClip™—(Un-Anesthetized Neck Sensor) for mice was used as the site for measuring the data. Day one of each experiment involved training the animals using a disposable CollarClip™. The collar was left on for approximately one hour. […] Mice were monitored for a 60-minute period, with measurements 10-20-30 and 60 minutes.
Respiratory depression was measured in live mice using the Mouse Ox (small animal Oximeter from STARR Life Sciences Corp, Oakmont, Pa.). CollarClip™ (Un-Anesthetized Neck Sensor) for mice was used as the site for measuring the data.
Day one of each experiment involved training the animals using a disposable CollarClip™. The collar was left on for approximately one hour.
Mice were monitored for a 60-minute period, with measurements 10-20-30 and 60 minutes.

[2] = test system: C3H/HeNCrlVr mice; details: intrathecal; spontaneous pain, mechanical allodynia, thermal hyperalgesia; cited from earlier work

CN1CC[C@]23c4c5ccc(O)c4O[C@H]2[C@@H](O)C=C[C@H]3[C@H]1C5 [Morphine, reference compound]
% of mice with O2 Saturation less than 90% [1]: 50%

Cc1cccc(C#Cc2ccccc2)n1 [MPEP]
effect on bone cancer-evoked pain [2]: attenuated bone cancer-evoked spontaneous pain
